In the supplement of paper PMC10307832:

How the values were obtained:
Assay in all cases: relative viability (nuclei count vs DMSO), 5 days (fraction); higher = more cells survive
[1] = compound: C1=CC2=C(C=C(C(=C2N=C1)O)N=NC3=CC4=C(C=C3)C=C(C=C4)S(=O)(=O)O)S(=O)(=O)O + CS(=O)(=O)N1CCN(Cc2cc3nc(-c4cccc5[nH]ncc45)nc(N4CCOCC4)c3s2)CC1 [Pictilisib] (partner 1 µM)
Outline: (§1)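 Lung cancer cell lines in 1536-well plates were dosed by pin tool the day after seeding, either with one drug alone or with a fixed anchor-drug dose plus five library-drug doses (not always all listed) in √10 steps. After 5 days, cells were fixed and their nuclei stained in one step (final 0.05% Triton X-100, 1% formaldehyde, 1 ug/ml Hoechst), then counted on 4× images. Relative viability is the nuclei count in treated wells divided by that in vehicle wells. Values are medians of duplicate plates.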

AT-7519 + Lapatinib = compound: O=C(NC1CCNCC1)c1n[nH]cc1NC(=O)c1c(Cl)cccc1Cl [AT-7519] + CS(=O)(=O)CCNCc1ccc(-c2ccc3ncnc(Nc4ccc(OCc5cccc(F)c5)c(Cl)c4)c3c2)o1 [Lapatinib] (partner 2 µM)
Outline: as §1

[2] = compound: C1=CC2=C(C=C(C(=C2N=C1)O)N=NC3=CC4=C(C=C3)C=C(C=C4)S(=O)(=O)O)S(=O)(=O)O + CS(=O)(=O)CCNCc1ccc(-c2ccc3ncnc(Nc4ccc(OCc5cccc(F)c5)c(Cl)c4)c3c2)o1 [Lapatinib] (partner 2 µM)
Outline: as §1

AT-7519 + Alpelisib = compound: O=C(NC1CCNCC1)c1n[nH]cc1NC(=O)c1c(Cl)cccc1Cl [AT-7519] + Cc1nc(NC(=O)N2CCC[C@H]2C(N)=O)sc1-c1ccnc(C(C)(C)C(F)(F)F)c1 [Alpelisib] (partner 2 µM)
Outline: as §1

Row | Cell Line | relative viability ([1]; first compound 0.08 µM) | relative viability ([1]; first compound 0.253 µM) | relative viability ([1]; first compound 0.8 µM) | relative viability ([1]; first compound 2.53 µM) | relative viability ([1]; first compound 8 µM) | relative viability (AT-7519 + Lapatinib; first compound 0.01 µM) | relative viability (AT-7519 + Lapatinib; first compound 0.03162 µM) | relative viability (AT-7519 + Lapatinib; first compound 0.3162 µM) | relative viability (AT-7519 + Lapatinib; first compound 1 µM) | relative viability ([2]; first compound 0.08 µM) | relative viability ([2]; first compound 0.253 µM) | relative viability ([2]; first compound 0.8 µM) | relative viability ([2]; first compound 2.53 µM) | relative viability ([2]; first compound 8 µM) | relative viability (AT-7519 + Alpelisib; first compound 0.01 µM) | relative viability (AT-7519 + Alpelisib; first compound 0.03162 µM) | relative viability (AT-7519 + Alpelisib; first compound 0.3162 µM) | relative viability (AT-7519 + Alpelisib; first compound 1 µM)
1 | ABC-1 | 0.629 | 0.63 | 0.579 | 0.67 | 0.643 | 0.984 | 0.909 | 0.986 | 0.966 | 1.25 | 0.989 | 1.08 | 1.18 | 1.02 | 0.962 | 1.01 | 0.724 | 0.416
2 | NCI-H838 | 0.42 | 0.42 | 0.437 | 0.417 | 0.518 | 1.05 | 0.815 | 0.124 | 0.0875 | 1.29 | 0.926 | 0.934 | 0.926 | 1.06 | 1.05 | 0.972 | 0.966 | 0.141
3 | A549 | 0.522 | 0.449 | 0.545 | 0.509 | 0.322 | 0.879 | 1.01 | 0.856 | 0.349 | 1.08 | 0.991 | 0.972 | 0.947 | 1.01 | 0.882 | 0.708 | 0.69 | 0.322
4 | A-427 | 0.665 | 0.731 | 0.629 | 0.672 | 0.709 | 1.1 | 0.989 | 1.03 | 0.929 | 1.16 | 0.825 | 0.974 | 1.05 | 1.1 | 1.11 | 1.06 | 1.01 | 0.453
5 | NCI-H1792 | 0.304 | 0.26 | 0.295 | 0.286 | 0.302 | 0.673 | 0.845 | 0.98 | 0.94 | 0.996 | 0.853 | 0.834 | 0.916 | 0.913 | 0.324 | 0.536 | 0.767 | 0.51
6 | LCLC-97TM1 | – | 0.239 | – | 0.149 | 0.222 | 0.83 | 0.732 | 0.805 | 0.758 | – | 0.665 | – | 0.835 | 1.04 | 0.29 | 0.195 | 0.254 | 0.162
7 | NCI-H1703 | 0.264 | 0.232 | 0.265 | 0.246 | 0.197 | 1.03 | 0.955 | 0.821 | 0.206 | 1.36 | 0.886 | 1.06 | 1.01 | 1.01 | 0.282 | 0.297 | 0.299 | 0.156
8 | LCLC-103H | 0.662 | 0.625 | 0.489 | 0.615 | 0.705 | – | – | – | – | – | – | – | – | – | 0.956 | 0.908 | 0.976 | 0.952
9 | PC-3 [JPC-3] | 0.79 | 0.771 | 0.663 | 0.713 | 0.694 | 0.529 | 0.441 | 0.416 | 0.52 | 0.483 | 0.474 | 0.484 | 0.445 | 0.426 | 1.02 | 1.03 | 1.04 | 1.03
10 | BEN | 0.617 | 0.564 | 0.493 | 0.667 | 0.48 | 0.834 | 0.68 | 0.781 | 0.55 | 0.956 | 0.623 | 0.669 | 0.766 | 0.654 | 1.03 | 0.954 | 1.12 | 0.76
11 | NCI-H1666 | 0.459 | 0.383 | 0.358 | 0.42 | 0.479 | 0.657 | 0.579 | 0.327 | 0.347 | 0.768 | 0.606 | 0.473 | 0.718 | 0.618 | 0.846 | 1.01 | 0.864 | 0.326
12 | LC-2-ad | 0.429 | 0.476 | 0.532 | 0.405 | 0.423 | 1.03 | 1.05 | 0.922 | 0.744 | 0.982 | 0.937 | 0.922 | 0.954 | 0.589 | 0.914 | 0.843 | 0.904 | 0.472
13 | SK-LU-1 | 0.615 | 0.55 | 0.57 | 0.61 | 0.621 | 0.726 | 0.943 | 0.766 | 0.506 | 1.06 | 0.88 | 0.943 | 0.881 | 0.959 | 1.13 | 0.94 | 0.861 | 0.351
14 | ChaGo-K-1 | 0.645 | 0.669 | 0.673 | 0.851 | 0.711 | – | – | – | – | – | – | – | – | – | – | – | – | –
15 | COR-L 105 | 0.397 | 0.362 | 0.379 | 0.401 | 0.4 | 0.397 | 0.397 | 0.319 | 0.293 | 0.401 | 0.394 | 0.378 | 0.377 | 0.358 | 1.13 | 0.996 | 0.927 | 0.507
16 | NCI-H1975 | 0.327 | 0.299 | 0.268 | 0.305 | 0.286 | 0.861 | 0.817 | 0.447 | 0.158 | 1.08 | 0.883 | 0.833 | 0.987 | 0.861 | 0.63 | 0.658 | 0.381 | 0.152
17 | Calu-6 | 0.903 | 1.01 | 0.955 | 0.974 | 0.838 | 1.12 | 1.07 | 0.988 | 0.18 | 1.16 | 1.03 | 1.01 | 1.02 | 1.03 | 0.995 | 1.17 | 0.877 | 0.391
18 | NCI-H1993 | 0.887 | 0.802 | 0.938 | 0.921 | 0.782 | 0.808 | 0.787 | 0.632 | 0.699 | 0.82 | 0.71 | 0.801 | 0.723 | 0.589 | 0.728 | 0.677 | 0.676 | 0.614
19 | NCI-H441 | 0.475 | 0.49 | 0.37 | 0.528 | 0.498 | – | – | – | – | – | – | – | – | – | 0.685 | 0.706 | 0.617 | 0.299
